Data reported in ChEMBL document CHEMBL1201862, “PubChem BioAssay data set” (2004).
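Results reflect a 48-hour exposure of cells in 96-well plates to compound at five concentrations. Here, GI50 denotes the concentration required for 50% inhibition of growth.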 The source made the active and inactive calls. Cut-off read from the data, not from the text of the source: active = GI50 up to about 1.1 µM and inactive = higher.

Assays:
Assay in all cases: NCI tumour cell line growth inhibition, 48 h
KM12 = test system: KM12
NCI/ADR-RES = test system: NCI/ADR-RES
MOLT-4 = test system: MOLT-4
LOX IMVI = test system: LOX IMVI
SK-MEL-2 = test system: SK-MEL-2
MDA-MB-231 = test system: MDA-MB-231
MDA-N = test system: MDA-N
PC-3 = test system: PC-3
T47D = test system: T47D
HL-60 = test system: HL-60
ACHN = test system: ACHN
SN12C = test system: SN12C
EKVX = test system: EKVX
MDA-MB-435 = test system: MDA-MB-435
UACC-62 = test system: UACC-62
OVCAR-4 = test system: OVCAR-4
MCF7 = test system: MCF7
HOP-62 = test system: HOP-62
OVCAR-3 = test system: OVCAR-3
NCI-H460 = test system: NCI-H460
CCRF-CEM = test system: CCRF-CEM
SF-539 = test system: SF-539
CAKI-1 = test system: CAKI-1
A549 = test system: A549
A498 = test system: A498
OVCAR-5 = test system: OVCAR-5
OVCAR-8 = test system: OVCAR-8
RXF 393 = test system: RXF 393
SF-295 = test system: SF-295
HOP-92 = test system: HOP-92
SK-MEL-5 = test system: SK-MEL-5
HCT-116 = test system: HCT-116
UACC-257 = test system: UACC-257
Hs-578T = test system: Hs-578T
HCT-15 = test system: HCT-15
NCI-H23 = test system: NCI-H23
SK-MEL-28 = test system: SK-MEL-28
Malme-3M = test system: Malme-3M
HCC 2998 = test system: HCC 2998
DU-145 = test system: DU-145
SK-OV-3 = test system: SK-OV-3
SW-620 = test system: SW-620
COLO 205 = test system: COLO 205
SNB-19 = test system: SNB-19
SR = test system: SR
M14 = test system: M14
786-0 = test system: 786-0
TK-10 = test system: TK-10
SF-268 = test system: SF-268
NCI-H226 = test system: NCI-H226
HT-29 = test system: HT-29
K562 = test system: K562
NCI-H522 = test system: NCI-H522
SNB-75 = test system: SNB-75
IGROV-1 = test system: IGROV-1
U-251 = test system: U-251
UO-31 = test system: UO-31
BT-549 = test system: BT-549
RPMI-8226 = test system: RPMI-8226

Measured: GI50

O=C1CSC(=O)/C1=C\NNc1nc2ccccc2o1
active: HL-60 586 nM | CCRF-CEM 1090 nM
12000 nM: HCT-15
inactive: KM12 67.9 µM | NCI/ADR-RES 12.5 µM | MOLT-4 21000 nM | LOX IMVI 22.4 µM | SK-MEL-2 37.2 µM | MDA-MB-231 30.9 µM | MDA-N 52.1 µM | PC-3 21.8 µM | T47D 6.34 µM | ACHN 32.6 µM | SN12C 29.6 µM | EKVX 34.5 µM | MDA-MB-435 65.9 µM | UACC-62 18 µM | OVCAR-4 38.3 µM | MCF7 59.3 µM | HOP-62 51.8 µM | OVCAR-3 17.4 µM | NCI-H460 23.8 µM | SF-539 11.4 µM | CAKI-1 23.9 µM | A549 27.7 µM | A498 25.5 µM | OVCAR-5 60.7 µM | OVCAR-8 13.6 µM | RXF 393 21.8 µM | SF-295 19.9 µM | HOP-92 23.3 µM | SK-MEL-5 14.4 µM | HCT-116 17 µM | UACC-257 29.7 µM | Hs-578T 52.7 µM | NCI-H23 24.5 µM | SK-MEL-28 67 µM | Malme-3M 31.5 µM | HCC 2998 54.1 µM | DU-145 47.5 µM | SK-OV-3 32.3 µM | SW-620 29.8 µM | COLO 205 27 µM | SNB-19 19.6 µM | SR 24.5 µM | M14 19.3 µM | 786-0 40.2 µM | TK-10 53.3 µM | SF-268 30.5 µM | NCI-H226 36 µM | HT-29 24.7 µM

O=C1NC(c2cccc3ccccc23)Nc2ccc(Cl)cc21 (centres undefined)
active: KM12 0.0022 µM | NCI/ADR-RES 0.00111 µM | MOLT-4 1.74 nM | LOX IMVI 0.000482 µM | SK-MEL-2 0.00204 µM | MDA-MB-231 0.00838 µM | MDA-N < 0.0001 µM | PC-3 0.00165 µM | HL-60 0.133 nM | ACHN 0.00268 µM | SN12C 0.00828 µM | EKVX 0.00235 µM | MDA-MB-435 < 0.0001 µM | UACC-62 0.000214 µM | OVCAR-4 0.327 µM | MCF7 0.0741 µM | HOP-62 0.00261 µM | K562 < 0.1 nM | OVCAR-3 0.0016 µM | NCI-H522 0.546 nM | NCI-H460 0.0038 µM | CCRF-CEM 0.618 nM | SF-539 < 0.01 µM | CAKI-1 0.00118 µM | A549 0.00509 µM | A498 0.00143 µM | OVCAR-5 0.0244 µM | OVCAR-8 0.00935 µM | RXF 393 0.00394 µM | SF-295 0.000516 µM | SK-MEL-5 0.00106 µM | SNB-75 0.164 nM | HCT-116 0.000912 µM | IGROV-1 18.1 nM | Hs-578T 0.000624 µM | NCI-H23 0.0579 µM | SK-MEL-28 < 0.01 µM | Malme-3M 0.00176 µM | HCC 2998 0.0105 µM | DU-145 0.00452 µM | SK-OV-3 0.00105 µM | SW-620 0.00168 µM | COLO 205 0.00239 µM | SNB-19 0.00189 µM | SR 0.000229 µM | M14 0.00115 µM | 786-0 0.00193 µM | U-251 0.977 nM | UO-31 3.19 nM | SF-268 0.0035 µM | NCI-H226 0.00432 µM | HT-29 0.00166 µM
inactive: T47D 20.5 µM
1.8 nM: HCT-15

CCCc1cn2c(/C=N/NC(=N)N)c(-c3cc([N+](=O)[O-])c(Cl)cc3Cl)nc2s1
active: MOLT-4 170 nM | CCRF-CEM 216 nM
1660 nM: HCT-15
inactive: KM12 1.5 µM | NCI/ADR-RES 1.99 µM | LOX IMVI 1.41 µM | SK-MEL-2 1.87 µM | MDA-MB-231 1.63 µM | PC-3 1.67 µM | T47D 1.38 µM | HL-60 1760 nM | ACHN 1.77 µM | SN12C 1.77 µM | BT-549 2.15 µM | MDA-MB-435 1.8 µM | UACC-62 1.77 µM | OVCAR-4 1.46 µM | MCF7 1.4 µM | HOP-62 1.58 µM | K562 1230 nM | OVCAR-3 1.5 µM | NCI-H522 2180 nM | NCI-H460 1.72 µM | RPMI-8226 1.32 µM | SF-539 1.88 µM | CAKI-1 1.77 µM | A549 1.48 µM | A498 1.55 µM | OVCAR-5 1.75 µM | OVCAR-8 1.54 µM | RXF 393 1.9 µM | SF-295 1.73 µM | HOP-92 1.69 µM | SK-MEL-5 1.61 µM | SNB-75 1710 nM | HCT-116 1.32 µM | IGROV-1 1690 nM | UACC-257 1.66 µM | Hs-578T 1.85 µM | NCI-H23 1.67 µM | DU-145 1.82 µM | SK-OV-3 1.91 µM | SW-620 1.61 µM | COLO 205 1.48 µM | SNB-19 1.48 µM | SR 1.45 µM | M14 1.74 µM | 786-0 1.58 µM | TK-10 1.12 µM | U-251 1580 nM | UO-31 1790 nM | SF-268 1.69 µM | NCI-H226 1.82 µM | HT-29 1.22 µM
